Laboratory results reported in PubChem BioAssay AID1963422 (Molecular Pharmacology Branch, DTP, NCI, 2024).

System: 463943-066-T-J2-PDC complex spheroid growth
Experiment: Anticancer human tumor 463943-066-T-J2-PDC patient-derived colon adenocarcinoma cell line growth inhibition [Asc]
Conditions: for IC50: curve of first compound; for viability, T/C: stronger effect = lower value
How it was run: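 Spheroid model: tumor line + HUVEC + hMSC. Single agents and combinations; top conc. at/near clinical Cmax (10 microM if undetermined), half-log dilutions. DMSO stocks at 800-fold test concentration.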

[1] = second compound 0.0316 µM, first compound 0.0316 µM
[2] = second compound 0.0316 µM, first compound 0.1 µM
[3] = second compound 0.0316 µM, first compound 0.316 µM
[4] = second compound 0.0316 µM, first compound 1 µM
[5] = second compound 0.0316 µM, first compound 3.16 µM
[6] = second compound 0.0316 µM, first compound 10 µM
[7] = second compound 0.1 µM, first compound 0.0316 µM
[8] = second compound 0.1 µM, first compound 0.1 µM
[9] = second compound 0.1 µM, first compound 0.316 µM
[10] = second compound 0.1 µM, first compound 1 µM
[11] = second compound 0.1 µM, first compound 3.16 µM
[12] = second compound 0.1 µM, first compound 10 µM
[13] = second compound 0.316 µM, first compound 0.0316 µM
[14] = second compound 0.316 µM, first compound 0.1 µM
[15] = second compound 0.316 µM, first compound 0.316 µM
[16] = second compound 0.316 µM, first compound 1 µM
[17] = second compound 0.316 µM, first compound 3.16 µM
[18] = second compound 0.316 µM, first compound 10 µM
[19] = second compound 1 µM, first compound 0.0316 µM
[20] = second compound 1 µM, first compound 0.1 µM
[21] = second compound 1 µM, first compound 0.316 µM
[22] = second compound 1 µM, first compound 1 µM
[23] = second compound 1 µM, first compound 3.16 µM
[24] = second compound 1 µM, first compound 10 µM
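Also: compound exposure lasted 7 days.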
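For viability, T/C in this document: 100% = DMSO vehicle control wells.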

C#Cc1c(F)ccc2cc(O)cc(-c3ncc4c(N5CC6CCC(C5)N6)nc(OCC56CCCN5CC(F)C6)nc4c3F)c12 (stereo unspecified) + CNC(C)C(=O)NC1CN(S(=O)(=O)c2cccc(S(=O)(=O)N3CCC4CCC(C(=O)NC(c5ccccc5)c5ccccc5)N4C(=O)C(NC(=O)C(C)NC)C3)c2)CCC2CCC(C(=O)NC(c3ccccc3)c3ccccc3)N2C1=O
IC50 (second compound 0.00316 µM): > 10 µM | IC50 (second compound 0.01 µM): > 10 µM | IC50 (second compound 0.0316 µM): > 10 µM | IC50 (second compound 0.1 µM): > 10 µM | IC50 (second compound 0.316 µM): > 10 µM | IC50 (second compound 1 µM): > 10 µM | viability, T/C (second compound 0.00316 µM, first compound 0.0316 µM): 105% | viability, T/C (second compound 0.00316 µM, first compound 0.1 µM): 103% | viability, T/C (second compound 0.00316 µM, first compound 0.316 µM): 94.3% | viability, T/C (second compound 0.00316 µM, first compound 1 µM): 123% | viability, T/C (second compound 0.00316 µM, first compound 3.16 µM): 94% | viability, T/C (second compound 0.00316 µM, first compound 10 µM): 99.5% | viability, T/C (second compound 0.01 µM, first compound 0.0316 µM): 101% | viability, T/C (second compound 0.01 µM, first compound 0.1 µM): 99.9% | viability, T/C (second compound 0.01 µM, first compound 0.316 µM): 97.4% | viability, T/C (second compound 0.01 µM, first compound 1 µM): 102% | viability, T/C (second compound 0.01 µM, first compound 3.16 µM): 99.3% | viability, T/C (second compound 0.01 µM, first compound 10 µM): 101% | viability, T/C [1]: 102% | viability, T/C [2]: 101% | viability, T/C [3]: 94.3% | viability, T/C [4]: 103% | viability, T/C [5]: 100% | viability, T/C [6]: 91.3% | viability, T/C [7]: 109% | viability, T/C [8]: 92% | viability, T/C [9]: 98% | viability, T/C [10]: 94.6% | viability, T/C [11]: 101% | viability, T/C [12]: 85.7% | viability, T/C [13]: 88% | viability, T/C [14]: 94.2% | viability, T/C [15]: 89.6% | viability, T/C [16]: 93.3% | viability, T/C [17]: 100% | viability, T/C [18]: 81.8% | viability, T/C [19]: 90.7% | viability, T/C [20]: 85.6% | viability, T/C [21]: 80.8% | viability, T/C [22]: 87.7% | viability, T/C [23]: 85.6% | viability, T/C [24]: 72%

Cc1nc(N2CCC3(CC2)COC(C)C3N)c(CO)nc1Sc1ccnc(N)c1Cl (stereo unspecified) + CNC(C)C(=O)NC1CN(S(=O)(=O)c2cccc(S(=O)(=O)N3CCC4CCC(C(=O)NC(c5ccccc5)c5ccccc5)N4C(=O)C(NC(=O)C(C)NC)C3)c2)CCC2CCC(C(=O)NC(c3ccccc3)c3ccccc3)N2C1=O
IC50 (second compound 0.00316 µM): > 3 µM | IC50 (second compound 0.01 µM): > 3 µM | IC50 (second compound 0.0316 µM): > 3 µM | IC50 (second compound 0.1 µM): > 3 µM | IC50 (second compound 0.316 µM): > 3 µM | IC50 (second compound 1 µM): > 3 µM | viability, T/C (second compound 0.00316 µM, first compound 0.00949 µM): 106% | viability, T/C (second compound 0.00316 µM, first compound 0.03 µM): 84.2% | viability, T/C (second compound 0.00316 µM, first compound 0.0949 µM): 85.5% | viability, T/C (second compound 0.00316 µM, first compound 0.3 µM): 86.6% | viability, T/C (second compound 0.00316 µM, first compound 0.949 µM): 81% | viability, T/C (second compound 0.00316 µM, first compound 3 µM): 70.3% | viability, T/C (second compound 0.01 µM, first compound 0.00949 µM): 96.2% | viability, T/C (second compound 0.01 µM, first compound 0.03 µM): 95.6% | viability, T/C (second compound 0.01 µM, first compound 0.0949 µM): 83.1% | viability, T/C (second compound 0.01 µM, first compound 0.3 µM): 85.5% | viability, T/C (second compound 0.01 µM, first compound 0.949 µM): 77.1% | viability, T/C (second compound 0.01 µM, first compound 3 µM): 71.8% | viability, T/C (second compound 0.0316 µM, first compound 0.00949 µM): 95.4% | viability, T/C (second compound 0.0316 µM, first compound 0.03 µM): 94.7% | viability, T/C (second compound 0.0316 µM, first compound 0.0949 µM): 81.3% | viability, T/C (second compound 0.0316 µM, first compound 0.3 µM): 78.8% | viability, T/C (second compound 0.0316 µM, first compound 0.949 µM): 77.6% | viability, T/C (second compound 0.0316 µM, first compound 3 µM): 69.1% | viability, T/C (second compound 0.1 µM, first compound 0.00949 µM): 96.8% | viability, T/C (second compound 0.1 µM, first compound 0.03 µM): 87% | viability, T/C (second compound 0.1 µM, first compound 0.0949 µM): 89.1% | viability, T/C (second compound 0.1 µM, first compound 0.3 µM): 88.1% | viability, T/C (second compound 0.1 µM, first compound 0.949 µM): 73.2% | viability, T/C (second compound 0.1 µM, first compound 3 µM): 66.3% | viability, T/C (second compound 0.316 µM, first compound 0.00949 µM): 92.3% | viability, T/C (second compound 0.316 µM, first compound 0.03 µM): 92.5% | viability, T/C (second compound 0.316 µM, first compound 0.0949 µM): 88.8% | viability, T/C (second compound 0.316 µM, first compound 0.3 µM): 83% | viability, T/C (second compound 0.316 µM, first compound 0.949 µM): 73.6% | viability, T/C (second compound 0.316 µM, first compound 3 µM): 66.5% | viability, T/C (second compound 1 µM, first compound 0.00949 µM): 84.1% | viability, T/C (second compound 1 µM, first compound 0.03 µM): 82.2% | viability, T/C (second compound 1 µM, first compound 0.0949 µM): 82% | viability, T/C (second compound 1 µM, first compound 0.3 µM): 73.5% | viability, T/C (second compound 1 µM, first compound 0.949 µM): 69.3% | viability, T/C (second compound 1 µM, first compound 3 µM): 64%

O=C(c1cc(Cc2n[nH]c(=O)c3ccccc23)ccc1F)N1CCN(C(=O)C2CC2)CC1 + Cc1c(S(C)(=O)=O)c(-c2cc(F)cc(N3CCN(c4ccc(NS(=O)(=O)c5ccc(NC(CCN6CCC(C(=O)OCCCP(=O)(O)O)CC6)CSc6ccccc6)c(S(=O)(=O)C(F)(F)F)c5)cc4)CC3)c2)c(-c2ccc(Cl)cc2)n1C(C)C
IC50 (second compound 0.0316 µM): > 10 µM | IC50 (second compound 0.1 µM): > 10 µM | IC50 (second compound 0.316 µM): > 10 µM | IC50 (second compound 1 µM): > 10 µM | IC50 (second compound 3.16 µM): > 10 µM | IC50 (second compound 10 µM): 1.16 µM | viability, T/C [1]: 95.1% | viability, T/C [2]: 90% | viability, T/C [3]: 93% | viability, T/C [4]: 97.3% | viability, T/C [5]: 93.3% | viability, T/C [6]: 86.9% | viability, T/C [7]: 98.3% | viability, T/C [8]: 86.5% | viability, T/C [9]: 94.1% | viability, T/C [10]: 91.5% | viability, T/C [11]: 94.6% | viability, T/C [12]: 81.7% | viability, T/C [13]: 91.5% | viability, T/C [14]: 90.3% | viability, T/C [15]: 87.2% | viability, T/C [16]: 85.8% | viability, T/C [17]: 88.7% | viability, T/C [18]: 77.1% | viability, T/C [19]: 79.4% | viability, T/C [20]: 76.2% | viability, T/C [21]: 81.4% | viability, T/C [22]: 79.3% | viability, T/C [23]: 73.3% | viability, T/C [24]: 74.8% | viability, T/C (second compound 3.16 µM, first compound 0.0316 µM): 65.4% | viability, T/C (second compound 3.16 µM, first compound 0.1 µM): 59.8% | viability, T/C (second compound 3.16 µM, first compound 0.316 µM): 60.6% | viability, T/C (second compound 3.16 µM, first compound 1 µM): 67.2% | viability, T/C (second compound 3.16 µM, first compound 3.16 µM): 62.8% | viability, T/C (second compound 3.16 µM, first compound 10 µM): 54.9% | viability, T/C (second compound 10 µM, first compound 0.0316 µM): 54.8% | viability, T/C (second compound 10 µM, first compound 0.1 µM): 48.4% | viability, T/C (second compound 10 µM, first compound 0.316 µM): 50.3% | viability, T/C (second compound 10 µM, first compound 1 µM): 51.8% | viability, T/C (second compound 10 µM, first compound 3.16 µM): 49.4% | viability, T/C (second compound 10 µM, first compound 10 µM): 48.2%
